Measured values: patent publication US20260266848A1, “COMPOSITIONS AND METHODS FOR DIAGNOSING AND TREATING DYSTONIA” (Duke University, priority 2023, published 2026)

Test system: DYT-TOR1A MEF EVs
Experiment: Quantitative LC-MS/MS proteomics of EVs from drug-treated DYT-TOR1A MEF cultures (ritonavir, salubrinal)
Assay type: cell-based, mouse
Design: key to RTV Corrective Direction / RTV Corrective Direction, Grwd1 / RTV Corrective Direction, Srrm2 / RTV Corrective Direction, Rbm17 / RTV Corrective Direction, Dcaf8 / RTV Corrective Direction, Edil3 / RTV Corrective Direction, Timp3 / RTV Corrective Direction, Heatr3 / RTV Corrective Direction, Brd4 / RTV Corrective Direction, P3h4 / RTV Corrective Direction, Pacsin3 / RTV Corrective Direction, Naa50 / RTV Corrective Direction, Lpar6 / RTV Corrective Direction, Ndrg1 / RTV Corrective Direction, Kntc1 / RTV Corrective Direction, Cdk11b / RTV Corrective Direction, Sumo1 / RTV Corrective Direction, Lsm4 / RTV Corrective Direction, Hmga2 / RTV Corrective Direction, Cstf1 / RTV Corrective Direction, Tes / RTV Corrective Direction, Sbno1 / RTV Corrective Direction, Unc119b / RTV Corrective Direction, Cfdp1 / RTV Corrective Direction, Sec61b: YES = protein abundance effect opposite to DYT/WT

CC(C)c1nc(CN(C)C(=O)N[C@H](C(=O)N[C@@H](Cc2ccccc2)C[C@H](O)[C@H](Cc2ccccc2)NC(=O)OCc2cncs2)C(C)C)cs1 [ritonavir]
Absolute Cohen's d Sum (Geno + RTV), Brd4 (EV protein Brd4 (Q9ESU6)): 6.97
DYT + RTV/DYT Cohen's d, Brd4 (EV protein Brd4 (Q9ESU6)): 3.33
RTV Corrective Direction, Brd4 (EV protein Brd4 (Q9ESU6), DYT + RTV vs DYT): YES
Absolute Cohen's d Sum (Geno + RTV), Cdk11b (EV protein Cdk11b (P24788)): 6.07
DYT + RTV/DYT Cohen's d, Cdk11b (EV protein Cdk11b (P24788)): 2.84
RTV Corrective Direction, Cdk11b (EV protein Cdk11b (P24788), DYT + RTV vs DYT): YES
Absolute Cohen's d Sum (Geno + RTV), Cfdp1 (EV protein Cfdp1 (O88271)): 4.50
DYT + RTV/DYT Cohen's d, Cfdp1 (EV protein Cfdp1 (O88271)): 1.87
RTV Corrective Direction, Cfdp1 (EV protein Cfdp1 (O88271), DYT + RTV vs DYT): YES
Absolute Cohen's d Sum (Geno + RTV), Cstf1 (EV protein Cstf1 (Q99LC2)): 4.79
DYT + RTV/DYT Cohen's d, Cstf1 (EV protein Cstf1 (Q99LC2)): 1.81
RTV Corrective Direction, Cstf1 (EV protein Cstf1 (Q99LC2), DYT + RTV vs DYT): YES
Absolute Cohen's d Sum (Geno + RTV), Ctdsp1 (EV protein Ctdsp1 (P58466)): 9.37
DYT + RTV/DYT Cohen's d, Ctdsp1 (EV protein Ctdsp1 (P58466)): −0.28
DYT + RTV/DYT Cohen's d, Dcaf8 (EV protein Dcaf8): 3.49
Absolute Cohen's d Sum (Geno + RTV), Dcaf8 (EV protein Dcaf8 (Q8N7N5)): 7.70
RTV Corrective Direction, Dcaf8 (EV protein Dcaf8 (Q8N7N5), DYT + RTV vs DYT): YES
Absolute Cohen's d Sum (Geno + RTV), Dnajc7 (EV protein Dnajc7 (Q9QYI3)): 4.50
DYT + RTV/DYT Cohen's d, Dnajc7 (EV protein Dnajc7 (Q9QYI3)): −0.67
Absolute Cohen's d Sum (Geno + RTV), Drg1 (EV protein Drg1 (P32233)): 4.38
DYT + RTV/DYT Cohen's d, Drg1 (EV protein Drg1 (P32233)): −1.06
Absolute Cohen's d Sum (Geno + RTV), Edil3 (EV protein Edil3 (O35474)): 7.67
DYT + RTV/DYT Cohen's d, Edil3 (EV protein Edil3 (O35474)): 4.51
RTV Corrective Direction, Edil3 (EV protein Edil3 (O35474), DYT + RTV vs DYT): YES
Absolute Cohen's d Sum (Geno + RTV), Grwd1 (EV protein Grwd1 (Q810D6)): 8.06
DYT + RTV/DYT Cohen's d, Grwd1 (EV protein Grwd1 (Q810D6)): 2.65
RTV Corrective Direction, Grwd1 (EV protein Grwd1 (Q810D6), DYT + RTV vs DYT): YES
Absolute Cohen's d Sum (Geno + RTV), Heatr3 (EV protein Heatr3 (Q8BQM4)): 7.08
DYT + RTV/DYT Cohen's d, Heatr3 (EV protein Heatr3 (Q8BQM4)): 3.09
RTV Corrective Direction, Heatr3 (EV protein Heatr3 (Q8BQM4), DYT + RTV vs DYT): YES
Absolute Cohen's d Sum (Geno + RTV), Hmga2 (EV protein Hmga2 (P52927)): 5.34
DYT + RTV/DYT Cohen's d, Hmga2 (EV protein Hmga2 (P52927)): 1.97
RTV Corrective Direction, Hmga2 (EV protein Hmga2 (P52927), DYT + RTV vs DYT): YES
Absolute Cohen's d Sum (Geno + RTV), Kntc1 (EV protein Kntc1 (Q8C3Y4)): 6.09
DYT + RTV/DYT Cohen's d, Kntc1 (EV protein Kntc1 (Q8C3Y4)): 2.48
RTV Corrective Direction, Kntc1 (EV protein Kntc1 (Q8C3Y4), DYT + RTV vs DYT): YES
Absolute Cohen's d Sum (Geno + RTV), Lpar6 (EV protein Lpar6 (Q8BMC0)): 6.22
DYT + RTV/DYT Cohen's d, Lpar6 (EV protein Lpar6 (Q8BMC0)): −3.03
RTV Corrective Direction, Lpar6 (EV protein Lpar6 (Q8BMC0), DYT + RTV vs DYT): YES
Absolute Cohen's d Sum (Geno + RTV), Lsm4 (EV protein Lsm4 (Q9QXA5)): 5.40
DYT + RTV/DYT Cohen's d, Lsm4 (EV protein Lsm4 (Q9QXA5)): 2.49
RTV Corrective Direction, Lsm4 (EV protein Lsm4 (Q9QXA5), DYT + RTV vs DYT): YES
Absolute Cohen's d Sum (Geno + RTV), Maea (EV protein Maea (Q4VC33)): 3.96
DYT + RTV/DYT Cohen's d, Maea (EV protein Maea (Q4VC33)): −0.37
Absolute Cohen's d Sum (Geno + RTV), Myo1e (EV protein Myo1e (E9Q634)): 5.88
DYT + RTV/DYT Cohen's d, Myo1e (EV protein Myo1e (E9Q634)): −1.46
Absolute Cohen's d Sum (Geno + RTV), Naa50 (EV protein Naa50 (Q6PGB6)): 6.3
DYT + RTV/DYT Cohen's d, Naa50 (EV protein Naa50 (Q6PGB6)): 1.96
RTV Corrective Direction, Naa50 (EV protein Naa50 (Q6PGB6), DYT + RTV vs DYT): YES
Absolute Cohen's d Sum (Geno + RTV), Ndrg1 (EV protein Ndrg1 (Q62433)): 6.19
DYT + RTV/DYT Cohen's d, Ndrg1 (EV protein Ndrg1 (Q62433)): 2.70
RTV Corrective Direction, Ndrg1 (EV protein Ndrg1 (Q62433), DYT + RTV vs DYT): YES
Absolute Cohen's d Sum (Geno + RTV), P3h4 (EV protein P3h4 (Q8K2B0)): 6.88
DYT + RTV/DYT Cohen's d, P3h4 (EV protein P3h4 (Q8K2B0)): 1.62
RTV Corrective Direction, P3h4 (EV protein P3h4 (Q8K2B0), DYT + RTV vs DYT): YES
Absolute Cohen's d Sum (Geno + RTV), Pacsin3 (EV protein Pacsin3 (Q99JB8)): 6.45
DYT + RTV/DYT Cohen's d, Pacsin3 (EV protein Pacsin3 (Q99JB8)): −3.41
RTV Corrective Direction, Pacsin3 (EV protein Pacsin3 (Q99JB8), DYT + RTV vs DYT): YES
Absolute Cohen's d Sum (Geno + RTV), Pcdh19 (EV protein Pcdh19 (Q80TF3)): 7.74
DYT + RTV/DYT Cohen's d, Pcdh19 (EV protein Pcdh19 (Q80TF3)): −0.30
Absolute Cohen's d Sum (Geno + RTV), Plpp3 (EV protein Plpp3 (Q99JY8)): 4.97
DYT + RTV/DYT Cohen's d, Plpp3 (EV protein Plpp3 (Q99JY8)): 0.51
Absolute Cohen's d Sum (Geno + RTV), Rbm17 (EV protein Rbm17 (Q8JZX4)): 7.77
DYT + RTV/DYT Cohen's d, Rbm17 (EV protein Rbm17 (Q8JZX4)): 2.38
RTV Corrective Direction, Rbm17 (EV protein Rbm17 (Q8JZX4), DYT + RTV vs DYT): YES
Absolute Cohen's d Sum (Geno + RTV), Sbno1 (EV protein Sbno1 (Q689Z5)): 4.67
DYT + RTV/DYT Cohen's d, Sbno1 (EV protein Sbno1 (Q689Z5)): 1.29
RTV Corrective Direction, Sbno1 (EV protein Sbno1 (Q689Z5), DYT + RTV vs DYT): YES
Absolute Cohen's d Sum (Geno + RTV), Sec61b (EV protein Sec61b (Q9CQS8)): 3.57
DYT + RTV/DYT Cohen's d, Sec61b (EV protein Sec61b (Q9CQS8)): 0.27
RTV Corrective Direction, Sec61b (EV protein Sec61b (Q9CQS8), DYT + RTV vs DYT): YES
Absolute Cohen's d Sum (Geno + RTV), Sh3bp4 (EV protein Sh3bp4 (Q921I6)): 4.75
DYT + RTV/DYT Cohen's d, Sh3bp4 (EV protein Sh3bp4 (Q921I6)): −0.91
Absolute Cohen's d Sum (Geno + RTV), Srrm2 (EV protein Srrm2 (Q8BTI8)): 7.87
DYT + RTV/DYT Cohen's d, Srrm2 (EV protein Srrm2 (Q8BTI8)): 3.51
RTV Corrective Direction, Srrm2 (EV protein Srrm2 (Q8BTI8), DYT + RTV vs DYT): YES
Absolute Cohen's d Sum (Geno + RTV), Sumo1 (EV protein Sumo1 (P63166)): 5.99
DYT + RTV/DYT Cohen's d, Sumo1 (EV protein Sumo1 (P63166)): 2.28
RTV Corrective Direction, Sumo1 (EV protein Sumo1 (P63166), DYT + RTV vs DYT): YES
Absolute Cohen's d Sum (Geno + RTV), Tes (EV protein Tes (P47226)): 4.69
DYT + RTV/DYT Cohen's d, Tes (EV protein Tes (P47226)): 0.20
RTV Corrective Direction, Tes (EV protein Tes (P47226), DYT + RTV vs DYT): YES
Absolute Cohen's d Sum (Geno + RTV), Timp3 (EV protein Timp3 (P39876)): 7.42
DYT + RTV/DYT Cohen's d, Timp3 (EV protein Timp3 (P39876)): −2.93
RTV Corrective Direction, Timp3 (EV protein Timp3 (P39876), DYT + RTV vs DYT): YES
Absolute Cohen's d Sum (Geno + RTV), Tspan7 (EV protein Tspan7 (Q62283)): 7.37
DYT + RTV/DYT Cohen's d, Tspan7 (EV protein Tspan7 (Q62283)): −2.89
Absolute Cohen's d Sum (Geno + RTV), Unc119b (EV protein Unc119b (Q8C4B4)): 4.63
DYT + RTV/DYT Cohen's d, Unc119b (EV protein Unc119b (Q8C4B4)): 2.22
RTV Corrective Direction, Unc119b (EV protein Unc119b (Q8C4B4), DYT + RTV vs DYT): YES
Pearson's r between genotype and ritonavir effects on EV protein abundance (entire proteome, n=1974): −0.74
Pearson's r between genotype and ritonavir effects on EV protein abundance (putative DYT biomarker subset, n=363): −0.78
additional human plasma EV protein homologs modulated in a corrective direction in mouse DYT1 EV experiment (MEF), not reaching significance (p<0.05) (ritonavir): 687
all EV proteins with log 2 fold change>0 (ritonavir 20 μM, 24 h): 1372/1974
number of significant hits among 363 proteins relative to chance (α=0.05) (ritonavir 20 μM, 24 h): 12 times
overall effect on the DYT-TOR1A MEF EV proteome (ritonavir 20 μM, 24 h): broad corrective effect
significantly modified EV proteins with log 2 fold change>0 (ritonavir 20 μM, 24 h): 508/582
overall effect on the DYT-TOR1A MEF EV proteome (ritonavir 20 μM, 24 h, listed as Ritonavir): proteome-wide corrective effects
hierarchical clustering of EV samples on 363 genotype biomarker proteins (ritonavir-treated DYT-TOR1A EV samples): clustered more closely with WT than DYT-TOR1A samples
